Counter-ions that a name gives are not always drawn. Some results are limits rather than exact numbers.

In the experiment the test system is NQO1 specific enzyme activity in BEAS-2B cells (marker for NRF2 activation). Kind of experiment: BEAS-2B NQO1 MTT Assay. In kind it is cell-based. Particulars: Homo sapiens, BEAS-2B, 48 h, NQO1 specific activity induction, 48 hours with compound. The procedure, abridged:
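Cells plated overnight at 37° C., 5% CO2, then exposed to compound for 48 hours. NQO1 activity read in crude lysates with MTT cocktail as kinetic absorbance at 570 nm over 30 minutes. pEC50 from Delta OD/min versus log concentration with a 3-parameter fit.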
`CCCn1cc(CO[C@H](c2ccc(C)c(CN3C[C@@H](C)Cc4ccc(F)cc4S3(=O)=O)c2)C(C)(C)C(=O)O)nn1` [Example 87, (R)-3-(3-(((S)-8-fluoro-4-methyl-1,1-dioxido-4,5-dihydrobenzo[f][1,2]thiazepin-2(3H)-yl)methyl)-4-methylphenyl)-2,2-dimethyl-3-((1-propyl-1H-1,2,3-triazol-4-yl)methoxy)propanoic acid]: the concentration for a half-maximal effect (EC50) is below 0.001 µM.

Regarding `CCCn1cc(CO[C@H](c2ccc(C)c(CN3C[C@@H](C)Cc4ccccc4S3(=O)=O)c2)C(C)(C)C(=O)O)nn1` [Example 88, (R)-2,2-dimethyl-3-(4-methyl-3-(((S)-4-methyl-1,1-dioxido-4,5-dihydrobenzo[f][1,2]thiazepin-2(3H)-yl)methyl)phenyl)-3-((1-propyl-1H-1,2,3-triazol-4-yl)methoxy)propanoic acid], the EC50 was below 0.001 µM.

Take `CCCn1cc(CO[C@H](c2ccc(C)c(CN3C[C@@H](C)Cc4ncccc4S3(=O)=O)c2)C(C)(C)C(=O)O)nn1` [Example 89, (R)-2,2-dimethyl-3-(4-methyl-3-(((S)-4-methyl-1,1-dioxido-4,5-dihydropyrido[2,3-f][1,2]thiazepin-2(3H)-yl)methyl)phenyl)-3-((1-propyl-1H-1,2,3-triazol-4-yl)methoxy)propanoic acid]: the EC50 is below 0.001 µM.

Consider `CCCn1cc(CO[C@H](c2ccc(C)c(CN3C[C@@H](CC)Oc4ccccc4S3(=O)=O)c2)C(C)(C)C(=O)O)nn1` [Example 90, (R)-3-(3-(((R)-4-ethyl-1,1-dioxido-3,4-dihydro-2H-benzo[b][1,4,5]oxathiazepin-2-yl)methyl)-4-methylphenyl)-2,2-dimethyl-3-((1-propyl-1H-1,2,3-triazol-4-yl)methoxy)propanoic acid], for which the EC50 was below 0.001 µM.

For the molecule `CCn1cc(CO[C@H](c2ccc(C)c(CN(Cc3cccc(C(=O)O)c3)S(=O)(=O)c3ccccc3)c2)C(C)(C)C(=O)O)nn1` [Example 91, (R)-3-((N-(5-(2-carboxy-1-((1-ethyl-1H-1,2,3-triazol-4-yl)methoxy)-2-methylpropyl)-2-methylbenzyl)phenylsulfonamido)methyl)benzoic acid], the EC50 was in the range of 1 to 10 µM.

Consider `CCCn1cc(CO[C@H](c2ccc(C)c(CN(Cc3cccc(C(=O)O)c3)S(=O)(=O)c3cccc(C(=O)O)c3)c2)C(C)(C)C(=O)O)nn1` [Example 92, (R)-3-(N-(5-(2-carboxy-2-methyl-1-((1-propyl-1H-1,2,3-triazol-4-yl)methoxy)propyl)-2-methylbenzyl)-N-(3-carboxybenzyl)sulfamoyl)benzoic acid], for which the EC50 was in the range of 1 to 10 µM.

`COCCn1cc(CO[C@H](c2ccc(C)c(CN(Cc3ccccn3)S(=O)(=O)c3cccc(C(=O)O)c3)c2)C(C)(C)C(=O)O)nn1` [Example 93, (R)-3-(N-(5-(2-carboxy-1-((1-(2-methoxyethyl)-1H-1,2,3-triazol-4-yl)methoxy)-2-methylpropyl)-2-methylbenzyl)-N-(pyridin-2-ylmethyl)sulfamoyl)benzoic acid]: the EC50 lay within 0.1 to 1 µM.

In the case of `COCCn1cc(CO[C@H](c2ccc(C)c(CN(Cc3ccccc3)S(=O)(=O)c3cccc(C(=O)O)c3)c2)C(C)(C)C(=O)O)nn1` [Example 94, (R)-3-(N-benzyl-N-(5-(2-carboxy-1-((1-(2-methoxyethyl)-1H-1,2,3-triazol-4-yl)methoxy)-2-methylpropyl)-2-methylbenzyl)sulfamoyl)benzoic acid], the EC50 was in the range of 0.1 to 1 µM.

`CCn1cc(COC(c2ccc(C)c(CN(Cc3ccccc3)S(=O)(=O)c3cccc(C(=O)O)c3)c2)C(C)(C)C(=O)O)nn1` (stereo not drawn) [Example 95, 3-(N-benzyl-N-(5-(2-carboxy-1-((1-ethyl-1H-1,2,3-triazol-4-yl)methoxy)-2-methylpropyl)-2-methylbenzyl)sulfamoyl)benzoic acid]: the EC50 was in the range of 0.1 to 1 µM.

Consider `CCn1cc(COC(c2ccc(C)c(CN(C3CCCCC3)S(=O)(=O)c3cccc(OC)c3)c2)C(C)(C)C(=O)O)nn1` (stereo not drawn) [Example 96, 3-(3-(((N-cyclohexyl-3-methoxyphenyl)sulfamido)methyl)-4-methylphenyl)-3-((1-ethyl-1H-1,2,3-triazol-4-yl)methoxy)-2,2-dimethylpropanoic acid], for which the EC50 was 0.1 to 1 µM.

Consider `CCn1cc(COC(c2ccc(C)c(CN(C3CCCCC3)S(=O)(=O)c3ccc(OC)cc3)c2)C(C)(C)C(=O)O)nn1` (stereo not drawn) [Example 97, 3-(3-(((N-cyclohexyl-4-methoxyphenyl)sulfonamido)methyl)-4-methylphenyl)-3-((1-ethyl-1H-1,2,3-triazol-4-yl)methoxy)-2,2-dimethylpropanoic acid], for which the EC50 is 0.1 to 1 µM.

In the case of `CCn1cc(COC(c2ccc(C)c(CN(C3CCCCC3)S(=O)(=O)c3ccccc3)c2)C(C)(C)C(=O)O)nn1` (stereo not drawn) [Example 98, 3-(3-((N-cyclohexylphenylsulfonamido)methyl)-4-methylphenyl)-3-((1-ethyl-1H-1,2,3-triazol-4-yl)methoxy)-2,2-dimethylpropanoic acid], the EC50 fell in the range of 0.01 to 0.1 µM.

As to `CCn1cc(COC(c2ccc(C)c(CN(Cc3ccccc3)S(=O)(=O)c3ccccc3)c2)C(C)(C)C(=O)O)nn1` (stereo not drawn) [Example 99, 3-(3-((N-benzylphenylsulfonamido)methyl)-4-methylphenyl)-3-((1-ethyl-1H-1,2,3-triazol-4-yl)methoxy)-2,2-dimethylpropanoic acid], the EC50 lay in the range of 0.01 to 0.1 µM.

`Cc1ccc(C(OCc2cn(CC3CCN(C(N)=O)CC3)nn2)C(C)(C)C(=O)O)cc1CN1C[C@@H](C)Oc2ccccc2S1(=O)=O` (stereo partly drawn) [Example 100, 3-((1-((1-Carbamoylpiperidin-4-yl)methyl)-1H-1,2,3-triazol-4-yl)methoxy)-2,2-dimethyl-3-(4-methyl-3-(((R)-4-methyl-1,1-dioxido-3,4-dihydro-2H-benzo[b][1,4,5]oxathiazepin-2-yl)methyl)phenyl)propanoic acid]: the EC50 is 0.1 to 1 µM.

For `Cc1ccc(C(OCc2c[nH]nn2)C(C)(C)C(=O)O)cc1CN1C[C@@H](C)Oc2ccccc2S1(=O)=O` (stereo partly drawn) [Example 101, 3-((1H-1,2,3-triazol-4-yl)methoxy)-2,2-dimethyl-3-(4-methyl-3-(((R)-4-methyl-1,1-dioxido-3,4-dihydro-2H-benzo[b][1,4,5]oxathiazepin-2-yl)methyl)phenyl)propanoic acid], the EC50 is 0.01 to 0.1 µM.

As for `Cc1ccc(C(OCc2cn(C3COC3)nn2)C(C)(C)C(=O)O)cc1CN1C[C@@H](C)Oc2ccccc2S1(=O)=O` (stereo partly drawn) [Example 104, 2,2-Dimethyl-3-(4-methyl-3-(((R)-4-methyl-1,1-dioxido-3,4-dihydro-2H-benzo[b][1,4,5]oxathiazepin-2-yl)methyl)phenyl)-3-((1-(oxetan-3-yl)-1H-1,2,3-triazol-4-yl)methoxy)propanoic acid], the EC50 lay in the range of 0.01 to 0.1 µM.

As to `CC[C@@H]1CN(Cc2cc([C@H](OCc3cn(C4COC4)nn3)C(C)(C)C(=O)O)ccc2C)S(=O)(=O)c2ccccc2O1` [Example 105], the EC50 is 0.001 to 0.01 µM.

As to `CC[C@@H]1CN(Cc2cc(C(OCc3cn(CCOC)nn3)C(C)(C)C(=O)O)ccc2C)S(=O)(=O)c2ccccc2O1` (stereo partly drawn) [Example 106, 3-(3-(((R)-4-ethyl-1,1-dioxido-3,4-dihydro-2H-benzo[b][1,4,5]oxathiazepin-2-yl)methyl)-4-methylphenyl)-3-((1-(2-methoxyethyl)-1H-1,2,3-triazol-4-yl)methoxy)-2,2-dimethylpropanoic acid], the EC50 is below 0.001 µM.

As to `CC[C@@H]1CN(Cc2cc([C@H](OCc3cn(CCOCCOC)nn3)C(C)(C)C(=O)O)ccc2C)S(=O)(=O)c2ccccc2O1` [Example 107, 3-(3-(((R)-4-ethyl-1,1-dioxido-3,4-dihydro-2H-benzo[b][1,4,5]oxathiazepin-2-yl)methyl)-4-methylphenyl)-3-((1-(2-(2-methoxyethoxy)ethyl)-1H-1,2,3-triazol-4-yl)methoxy)-2,2-dimethylpropanoic acid], the EC50 is below 0.001 µM.

For `CC[C@@H]1CN(Cc2cc([C@@H](OCc3cn(C)nn3)C(C)(C)C(=O)O)ccc2C)Cc2ncccc2O1` [Example 108, (R)-3-(3-(((R)-2-Ethyl-2,3-dihydropyrido[2,3-f][1,4]oxazepin-4(5H)-yl)methyl)-4-methylphenyl)-2,2-dimethyl-3-((1-methyl-1H-1,2,3-triazol-4-yl)methoxy)propanoic acid Hydrochloride], the EC50 lay in the range of 0.01 to 0.1 µM.

Regarding `Cc1ccc([C@@H](OCc2cn(C)nn2)C(C)(C)C(=O)O)cc1CN1Cc2ncccc2O[C@H](C(C)C)C1` [Example 109, (R)-3-(3-(((R)-2-isopropyl-2,3-dihydropyrido[2,3-b][1,4]-oxazepin-4(5H)-yl)methyl)-4-methylphenyl)-2,2-dimethyl-3-((1-methyl-1H-1,2,3-triazol-4-yl)methoxy)propanoic acid], the EC50 fell in the range of 0.01 to 0.1 µM.

Regarding `CC[C@@H]1CN(Cc2cc([C@@H](OCc3cn(C)nn3)C(C)(C)C(=O)O)ccc2C)Cc2nc(C)ccc2O1` [Example 110, (R)-3-(3-(((R)-2-Ethyl-7-methyl-2,3-dihydropyrido[2,3-f][1,4]oxazepin-4(5H)-yl)methyl)-4-methylphenyl)-2,2-dimethyl-3-((1-methyl-1H-1,2,3-triazol-4-yl)methoxy)propanoic acid trifluoroacetate], the EC50 lay in the range of 0.001 to 0.01 µM.

With `CC[C@@H]1CN(Cc2cc([C@H](OCc3cn(C)nn3)C(C)(C)C(=O)O)ccc2C)Cc2ncccc2O1` [Example 111, (S)-methyl-3-(3-(((R)-2-ethyl-2,3-dihydropyrido[2,3-f][1,4]oxazepin-4(5H)-yl)methyl)-4-methyl-phenyl)-2,2-dimethyl-3-((1-methyl-1H-1,2,3-triazol-4-yl)-methoxy)-propanoic acid], the EC50 is 0.1 to 1 µM.

In the case of `Cc1ccc([C@H](OCc2cn(C)nn2)C(C)(C)C(=O)O)cc1CN1Cc2ncccc2O[C@H](C(C)C)C1` [Example 112, (S)-3-(3-(((R)-2-isopropyl-2,3-dihydropyrido[2,3-f][1,4]oxazepin-4(5H)-yl)methyl)-4-methylphenyl)-2,2-dimethyl-3-((1-methyl-1H-1,2,3-triazol-4-yl)-methoxy)propanoic acid, trifluoroacetate], the EC50 was in the range of 0.01 to 0.1 µM.

The values above are taken from patent US12091409B2, “Ether linked triazoles as NRF2 activators” (ASTEX THERAPEUTICS LIMITED, priority 2016, dated 2024).
